Laboratory results: US20220125900A1, “NEOANTIGENS IN CANCER” (priority 2019, published 2022)

Test system: IFNγ response of splenocytes
Assay: IFNγ ELISpot assay on splenocytes of vaccinated Balb/c mice
Type: in vivo
Conditions: splenocytes of mice vaccinated with Ancer-selected CT26 Neoantigen Peptides+Poly-ICLC, stimulated overnight; positive = >50 SFC/million over background and stimulation index >2-fold
From the text: Balb/c mice were separated into three groups: A) Vehicle control; B) Ancer™-selected CT26 Neoantigen Peptides+adjuvant; C) Ancer™-selected CT26 Neoantigen Peptides+JANUSMATRIX™ MHC class II selected peptides+adjuvant. All vaccines were formulated with the addition of the adjuvant Poly-ICLC. Poly-ICLC, also known as Hiltonol, is a synthetic double-stranded RNA (dsRNA) agonist for pattern recognition receptors (PRRs), and TLR3 agonist. Groups A, B, and C received an initial vaccination with subsequent boosts of vaccine at 2- and 4-weeks post initial vaccination. All mice are sacrificed at 7-10 days after the final boost and spleens were harvested for splenocyte isolation and IFNγ ELISpot assay.
Group A: 50 ug Poly-ICLC in 200 uL
Group B: 20 Ancer™-selected CT26 Neoantigen Peptides at 5 ug/peptide, 100 ug total peptide, 50 ug Poly-ICLC, 200 uL […]
Isolated splenocytes were plated and stimulated with Ancer™-selected CT26 Neoantigen Peptides (CT26 pool), JANUSMATRIX™ selected peptides (CT26-Treg_pool), class I peptide pool, as well as individual Ancer™-selected CT26 Neoantigen peptide CT26-1 (CT26_peptide 1) and CT26-20 ([…]). Plates were incubated overnight and then read. […] Statistical significance was determined by Student's T-test; per mouse—antigen vs. no antigen stimulus, as well as group comparisons (p<0.05).

Ac-LQARLTSYETLK-NH2 [CT26-1]
epitope-specific IFNγ response on recall stimulation (immunogenic): significant epitope-specific IFNγ response
